Results published in US20250136634A1, “CAP ANALOG AND USE THEREOF” (SHANGHAI HONGENE BIOTECH CORPORATION, priority 2021, published 2025).

Biological target: T1, RIG-I (Homo sapiens, UniProt O95786)
T1 construct: endogenous in cells; host or cells: Hela cells (ATCC CCL-2)
T1 sequence (O95786 1-925): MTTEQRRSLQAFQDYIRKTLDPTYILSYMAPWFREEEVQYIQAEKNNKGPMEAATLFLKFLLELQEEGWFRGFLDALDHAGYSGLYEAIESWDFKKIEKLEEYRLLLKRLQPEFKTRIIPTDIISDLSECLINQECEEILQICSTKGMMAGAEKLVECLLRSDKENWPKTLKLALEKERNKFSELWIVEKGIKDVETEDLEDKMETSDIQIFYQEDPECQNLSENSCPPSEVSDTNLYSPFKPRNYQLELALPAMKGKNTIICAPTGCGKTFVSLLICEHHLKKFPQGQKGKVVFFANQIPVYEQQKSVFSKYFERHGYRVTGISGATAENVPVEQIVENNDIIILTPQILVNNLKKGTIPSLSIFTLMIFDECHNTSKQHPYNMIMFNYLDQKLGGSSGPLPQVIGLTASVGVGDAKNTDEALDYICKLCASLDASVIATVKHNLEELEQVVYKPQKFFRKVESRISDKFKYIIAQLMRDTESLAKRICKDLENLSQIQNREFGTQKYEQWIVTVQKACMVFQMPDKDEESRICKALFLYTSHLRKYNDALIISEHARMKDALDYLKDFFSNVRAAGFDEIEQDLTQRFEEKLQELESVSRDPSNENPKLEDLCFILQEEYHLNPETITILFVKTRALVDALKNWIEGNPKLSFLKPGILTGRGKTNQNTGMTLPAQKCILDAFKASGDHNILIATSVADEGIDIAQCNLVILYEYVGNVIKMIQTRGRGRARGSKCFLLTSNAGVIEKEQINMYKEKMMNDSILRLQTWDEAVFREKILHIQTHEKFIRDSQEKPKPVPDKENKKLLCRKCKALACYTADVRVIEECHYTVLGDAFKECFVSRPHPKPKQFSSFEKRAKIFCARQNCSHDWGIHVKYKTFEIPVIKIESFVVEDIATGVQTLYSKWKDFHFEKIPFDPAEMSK
Assay: Binding ability of mRNA to RIG-I, RNA co-immunoprecipitation and qPCR in Hela cells
Details: 2 ug mRNA/well, cells collected after 24 hours, relative to ^m7GpppApG cap, mean±SD
Method: In this example, Hela cells (ATCC CCL-2) were transfected with luciferase mRNAs (Gaussia luciferase) comprising various initial cap structures (the initial cap nucleotide structures comprised are: ^m7GpppApG, ^m7GpppA2′Ome pG, ^m7G3′OmepppA2′O-ethylpG, ^m7G2′OmepppA2′O-ethylpG, ^m7G3′Omeppp A2′O-MOEpG, ^m7G2′O-mepppA2′O-MOEpG, ^m7Gppp(N6-methyladenine)2′O-MOEpG, ^m7G2′OmepppC2′O-ethylpC, ^m7G3′OmepppA2′O-MOEpU), and collected after 24 hours. The intracellular proteins RIG-I and IFIT1 were co-precipitated with the RNAs to which they bound by RNA co-immunoprecipation. The mRNAs were subjected to reverse transcription and real-time quantitative PCR, and the relative abundance of the mRNAs is proportional to their RIG-I and IFIT1 binding ability.
(§1) Hela cells were seeded at a cell density of 4×10^5/well in 6-well plates, and transfected with mRNA at 2 ug mRNA/well when the cell density reached about 80% using Lipofectamine MessengerMAX Transfection Reagent (Invitrogen) according to the transfection steps in the instruction. The cells were collected after 24 hours, and incubated at RT for 10 minutes after the addition of fixative solution. The reaction was then terminated by adding glycine at a suitable concentration, and the cells were collected by centrifugation. Appropriate amount of lysis solution was added to the cells. The mixture was incubated on ice for 30 minutes and centrifuged to collect supernatant. Appropriate amount of (2-4 ng) anti-RIG-I and IFIT1 antibodies (Abcam) were added to the supernatant, and the mixture was incubated overnight at 4° C. on a shaker, and then 20 ul Protein A/G magnetic beads were added and incubated for 2 hours at 4° C. on a shaker. The beads were rinsed using magnetic grate for 5 minutes and repeated 3 times. After that, 1 mL TRIzol reagent was added to the magnetic beads to extract RNAs which were then reverse transcribed into cDNAs. The expression of related genes was detected using real-time quantitative fluorescent PCR with B-actin as the internal reference. The detection of each gene was repeated 3 times, and the result of the expression of each gene is expressed as the relative value to the result of ^m7GpppApG cap.
The intracellular proteins RIG-I and IFIT1 were co-precipitated with the RNAs to which they bound by RNA co-immunoprecipitation. The mRNAs were subjected to reverse transcription and real-time quantitative PCR, and the relative abundance of the mRNAs is proportional to their RIG-I and IFIT1 binding ability.
as §1, with “(Invitrogen) as the transfection reagent” for “(Invitrogen)”, “was” for “was then”

Row | Substance | Relative binding ability to RIG (Example 2) | Relative binding ability to RIG (Example 3 (IVT at 50° C.))
1 | ^m7G2′OmepppA2′O-MOEpG | 0.69 ± 0.01 | –
2 | ^m7G2′OmepppA2′O-ethylpG | 0.82 ± 0.03 | –
3 | ^m7G2′OmepppC2′O-ethylpC | 0.93 ± 0.08 | –
4 | ^m7G3′OmepppA2′O-MOEpG | 0.78 ± 0.07 | –
5 | ^m7G3′OmepppA2′O-MOEpU | 1.12 ± 0.01 | –
6 | ^m7G3′OmepppA2′O-ethylpG | 0.87 ± 0.11 | –
7 | ^m7GAlpha-L-LNApppA2′O-ethyl pG | – | 0.52 ± 0.01
8 | ^m7GBeta-D-LNApppA2′O-MOEpG | – | 0.48 ± 0.02
9 | ^m7Gppp(N6-methyladenine)2′O-MOEpG | 0.77 ± 0.14 | –
10 | ^m7GpppA2′Ome pG [reference compound] | 0.86 ± 0.06 | 0.88 ± 0.11
11 | ^m7GpppApG [reference compound] | 1 ± 0.23 | 1 ± 0.28
